From patent US11559538B2, “Substituted 1,2-oxaborolan-2-ols as PDE4 inhibitors” (Pfizer Inc., priority 2018, dated 2023)
Like-named read-outs stand apart in the source and are kept apart here.

How the values were obtained:
IFNγ = assay: Cytokine assay: IFNγ release from PHA-L stimulated human PBMCs; assay type: cell-based
Protocol: (§1) Cytokine inhibitory activity is determined by measuring the effect of test agent on the release of the cytokines IL-4, IL-13 and IFNγ from human peripheral blood mononuclear cells (PBMCs) stimulated with the T-cell mitogen phytohemagglutinin-L (PHA-L). At the time of assay, human PBMCs (Astarte Biologics) are removed from cryopreservation, thawed quickly at 37° C., diluted in assay medium (RPMI-Gibco 1640 medium, 10% heat inactivated fetal bovine serum (HIFBS), 2 mM glutamine and 10 mM HEPES pH 7.4) and then centrifuged at 250×g for 5 minutes. The resulting cell pellet is re-suspended in assay medium to a concentration of approximately 5×10^6 cells/mL and 50 μL of this cell suspension (approximately 250,000 cells) is added to each well of a 384-well cell culture microtiter plate (Perkin Elmer). Varying concentrations of test compound are then diluted in assay medium and added to the assay plate wells in a volume of 25 μL. After −10 minutes at room temperature (21° C.) the cells are stimulated by the addition of 25 μL of PHA-L (14 μg/mL; Millipore) and the assay plate is placed in an incubator at 37° C. in a humidified environment in 5% carbon dioxide. The final assay conditions are approximately 250,000 human PBMCs per well in assay medium containing 3.5 μg/mL PHA-L and the indicated final concentration of test compound (approximately 10 μM to […] by 4-fold dilution). The final concentration of DMSO in the assay is approximately 0.25%. After 48 hours, the assay plate is removed from the incubator and centrifuged at 250×g for 5 minutes. A portion of the resulting cell supernatant is then used to determine the amount of IL-4, IL-13 and IFNγ in each well. Cytokine measurements are made using human IL-4, IL-13 or IFNγ HTRF assay kits (CisBio) following the manufacturer's assay protocol. The concentrations and resulting effect values for tested compounds are plotted and the concentration of compound required for 50% effect (IC50) is determined with a four-parameter logistic dose response equation (E-WorkBook, ID Business Solutions Ltd.) and shown in Table 17.

IL-4 = assay: Cytokine assay: IL-4 release from PHA-L stimulated human PBMCs; assay type: cell-based; settings: read-out: IL4 IC50
Protocol: as §1

[1] = target: PDE4B (aa 152-484, Uniprot ID Q07343) (Homo sapiens (Human), UniProt Q07343); assay: PDE4 SPA assay (scintillation proximity assay); assay type: biochemical; settings: read-out: PDE4B2 IC50
Chain of PDE4B (aa 152-484, Uniprot ID Q07343) (Q07343 324-656): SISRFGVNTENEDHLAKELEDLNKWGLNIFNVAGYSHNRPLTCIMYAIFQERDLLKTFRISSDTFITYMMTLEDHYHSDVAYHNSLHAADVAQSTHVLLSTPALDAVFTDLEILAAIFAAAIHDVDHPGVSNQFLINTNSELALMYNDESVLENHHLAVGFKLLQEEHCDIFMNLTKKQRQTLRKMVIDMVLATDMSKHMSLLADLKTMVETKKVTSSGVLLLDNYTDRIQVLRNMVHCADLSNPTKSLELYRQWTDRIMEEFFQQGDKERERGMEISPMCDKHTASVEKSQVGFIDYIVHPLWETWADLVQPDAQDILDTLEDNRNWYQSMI
Protocol: Phosphodiesterase (PDE) activity is determined by measuring the effect of a test agent on the activity of the PDE4B enzyme in a scintillation proximity assay (SPA). At the time of assay, approximately 30 μL of PDE4B (aa 152-484, Uniprot ID Q07343) in 50 mM Tris pH 7.5, 1.3 mM MgC2, 0.004% Brij 35 is added to a 384 well white clear bottom polystyrene plate (Corning) containing 1 μL of varying concentrations of test compound. After −10 minutes at room temperature (RT; 21° C.), the assay is initiated by the addition of 20 μL of a mixture of ^3H-labeled (adenosine 3′, 5′-cyclic phosphate, ammonium salt, [2,8-^3H]; Perkin Elmer) and unlabeled cAMP. The final assay conditions are approximately 81.6 pM PDE4B in 50 mM Tris pH 7.5, 1.3 mM MgCl2, 0.004% Brij 35, 1 μM ^3H-labeled/unlabeled cAMP (1425 dpm/pmol) and the indicated final concentration of test compound (approximately 10 μM to […] by 4-fold dilution). The final concentration of DMSO in the assay is approximately 2.0%. After 30 minutes at RT, the assay is terminated by the addition of approximately 20 μL of an aqueous solution of PDE YSI SPA beads (8 mg/mL in water; Perkin Elmer). The beads are allowed to settle for at least 2 hours and the plate is then counted on a MicroBeta2 (Perkin Elmer). The concentrations and resulting effect values for the tested compound are plotted and the concentration of compound required for 50% effect (IC50) is determined with a four-parameter logistic dose response equation (E-WorkBook, ID Business Solutions Ltd.) and shown in Table 17.

IL-13 = assay: Cytokine assay: IL-13 release from PHA-L stimulated human PBMCs; assay type: cell-based; settings: read-out: IL13 IC50
Protocol: as §1

| SMILES | IC50 (IFNγ) [nM] | IC50 (IL-4) [nM] | IC50 [1] [nM] | IC50 (IL-13) [nM] | IC50 (IFNγ; Homo sapiens, PBMC) [nM] | IC50 (IL-4; Homo sapiens, PBMC) [nM] | IC50 (IL-13; Homo sapiens, PBMC) [nM] |
| --- | --- | --- | --- | --- | --- | --- | --- |
| CCCOc1cc(-c2cccc(C3COB(O)C3)c2)ccc1OC (single isomer, unassigned) [Example 89, 4-(4′-methoxy-3′-propoxy-[1,1′-biphenyl]-3-yl)-1,2-oxaborolan-2-ol] | 3.5 | 26.4 | 1.21 | 449 | – | – | – |
| CCCOc1cc(-c2cccc(C3COB(O)C3)c2)ccc1OC (single isomer, unassigned) [Example 90, 4-(4′-methoxy-3′-propoxy-[1,1′-biphenyl]-3-yl)-1,2-oxaborolan-2-ol] | 13.7 | 290 | 4.33 | 2790 | – | – | – |
| CCOc1cc(-c2nc(C3COB(O)C3)cs2)c(F)cc1OC (single isomer, unassigned) [Example 92, 4-(2-(5-ethoxy-2-fluoro-4-methoxyphenyl)thiazol-4-yl)-1,2-oxaborolan-2-ol] | – | – | 1.79 | – | 2.7 | 3.36 | 947 |
| CCCOc1cc(-c2cncc(C3COB(O)C3)c2)ccc1OCC (single isomer, unassigned) [Example 106, 4-(5-(4-ethoxy-3-propoxyphenyl)pyridin-3-yl)-1,2-oxaborolan-2-ol] | 3.42 | 16.1 | 1.83 | 2080 | – | – | – |
| CCOc1cc(-c2cncc(C3COB(O)C3)c2)cc(C#N)c1OC (single isomer, unassigned) [Example 119, 3-ethoxy-5-(5-(2-hydroxy-1,2-oxaborolan-4-yl)pyridin-3-yl)-2-methoxybenzonitrile] | – | – | 0.72 | – | 7.34 | 5.74 | 1190 |
| COc1cnc(-c2cccc(C3COB(O)C3)c2)nc1OC (single isomer, unassigned) [Example 123, 4-(3-(4,5-dimethoxypyrimidin-2-yl)phenyl)-1,2-oxaborolan-2-ol] | – | – | 3.11 | – | 3.58 | 34.1 | 1640 |
| COc1ccc(-c2cncc(C3COB(O)C3)n2)cc1OC1CCCC1 (single isomer, unassigned) [Example 126, 4-(6-(3-(cyclopentyloxy)-4-methoxyphenyl)pyrazin-2-yl)-1,2-oxaborolan-2-ol] | – | – | 0.85 | – | 0.79 | 7.21 | 680 |
| CCCOc1cc(-c2cccc(C3COB(O)C3)n2)ccc1OC (single isomer, unassigned) [Example 128, 4-(6-(4-methoxy-3-propoxyphenyl)pyridin-2-yl)-1,2-oxaborolan-2-ol] | – | – | 5.74 | – | 2.25 | 53.1 | 667 |
| CCOc1cc(-c2cncc(C3COB(O)C3)c2C(F)F)ccc1OC (single isomer, unassigned) [Example 139, 4-(4-(difluoromethyl)-5-(3-ethoxy-4-methoxyphenyl)pyridin-3-yl)-1,2-oxaborolan-2-ol] | 0.4 | 0.78 | 0.25 | 788 | – | – | – |
| CCOc1cc(-c2cncc(C3COB(O)C3)c2C(F)F)ccc1OC (single isomer, unassigned) [Example 140, 4-(4-(difluoromethyl)-5-(3-ethoxy-4-methoxyphenyl)pyridin-3-yl)-1,2-oxaborolan-2-ol] | 3.2 | 3.47 | 2.7 | 3450 | – | – | – |
| CCOc1cc(-c2cncc(C3COB(O)C3)c2C)c(F)cc1OC (single isomer, unassigned) [Example 142, 4-(5-(5-ethoxy-2-fluoro-4-methoxyphenyl)-4-methylpyridin-3-yl)-1,2-oxaborolan-2-ol] | – | – | 2.53 | – | 2.04 | 4.5 | 1040 |
| CCOc1cc(-c2cncc(C3COB(O)C3)c2C)c(F)cc1OC (single isomer, unassigned) [Example 143, 4-(5-(5-ethoxy-2-fluoro-4-methoxyphenyl)-4-methylpyridin-3-yl)-1,2-oxaborolan-2-ol] | 3.68 | 4.11 | 2.71 | 1160 | – | – | – |
| CCCOc1cccc(-c2cncc(C3COB(O)C3)c2)c1 (single isomer, unassigned) [Example 146, 4-(5-(3-propoxyphenyl)pyridin-3-yl)-1,2-oxaborolan-2-ol] | – | – | 1.21 | – | 23.8 | 24.4 | 757 |
| CCOc1c(OC)ccc(-c2cncc(C3COB(O)C3)c2)c1C(F)F (single isomer, unassigned; (-)) [Example 10, (−) 4-(5-(2-(difluoromethyl)-3-ethoxy-4-methoxyphenyl)pyridin-3-yl)-1,2-oxaborolan-2-ol] | 1.62 | 2.39 | 6.92 | 438 | – | – | – |

More lines, in order of falling IC50 [1], values ahead:

| IC50 (IFNγ) [nM] | IC50 (IL-4) [nM] | IC50 [1] [nM] | IC50 (IL-13) [nM] | IC50 (IFNγ; Homo sapiens, PBMC) [nM] | IC50 (IL-4; Homo sapiens, PBMC) [nM] | IC50 (IL-13; Homo sapiens, PBMC) [nM] | SMILES |
| --- | --- | --- | --- | --- | --- | --- | --- |
| – | – | 5.03 | – | 3.02 | 19.1 | 444 | CCCOc1c(OC)ccc(-c2cccc(C3COB(O)C3)n2)c1C#N (single isomer, unassigned) [Example 87, 6-(6-(2-hydroxy-1,2-oxaborolan-4-yl)pyridin-2-yl)-3-methoxy-2-propoxybenzonitrile] |
| – | – | 4.87 | – | 2.87 | 7.36 | 461 | CCOc1c(OC)ccc(-c2cncc(C3COB(O)C3)c2)c1C(F)(F)F (single isomer, unassigned) [Example 95, 4-(5-(3-ethoxy-4-methoxy-2-(trifluoromethyl)phenyl)pyridin-3-yl)-1,2-oxaborolan-2-ol] |
| 12.6 | 99.9 | 4.02 | 759 | – | – | – | COc1ccc(-c2cccc(C3COB(O)C3)n2)cc1OC1CCCC1 (single isomer, unassigned) [Example 67, 4-(6-(3-(cyclopentyloxy)-4-methoxyphenyl)pyridin-2-yl)-1,2-oxaborolan-2-ol] |
| – | – | 3.2 | 490 | 5.46 | 14.2 | – | CCCOc1cc(-c2cncc(C3COB(O)C3)c2)ccc1OCC (single isomer, unassigned) [Example 105, 4-(5-(4-ethoxy-3-propoxyphenyl)pyridin-3-yl)-1,2-oxaborolan-2-ol] |
| – | – | 3.04 | – | 2.71 | 10.9 | 768 | CCOc1c(OC)ccc(-c2cncc(C3COB(O)C3)c2)c1F (single isomer, unassigned) [Example 74, 4-(5-(3-ethoxy-2-fluoro-4-methoxyphenyl)pyridin-3-yl)-1,2-oxaborolan-2-ol] |
| 2.67 | 219 | 1.13 | 2800 | – | – | – | CCOc1ccc(-c2cncc(C3COB(O)C3)c2)cc1OCC (single isomer, unassigned) [Example 98, 4-(5-(3,4-diethoxyphenyl)pyridin-3-yl)-1,2-oxaborolan-2-ol] |
| – | – | 0.97 | – | 2.95 | 3.01 | 496 | CCCOc1cc(-c2cncc(C3COB(O)C3)c2)c(F)cc1OC (single isomer, unassigned) [Example 111, 4-(5-(2-fluoro-4-methoxy-5-propoxyphenyl)pyridin-3-yl)-1,2-oxaborolan-2-ol] |
| – | – | 0.29 | – | 0.56 | 0.9 | 541 | CCCOc1cc(-c2cncc(C3COB(O)C3)c2C)ccc1OC (single isomer, unassigned) [Example 85, 4-(5-(4-methoxy-3-propoxyphenyl)-4-methylpyridin-3-yl)-1,2-oxaborolan-2-ol] |
